Data published in patent US10323016B2, “Imidazol- or 1,2,4-triazol-derivatives and their use” (UNIVERSITE DE LILLE 2 DROIT ET SANTE, priority 2014, dated 2019).
pEC50: −log10 of the molar value.

Columns and labels:
mTGR5 = mTGR5 (Mus musculus (Mouse), UniProt Q80SS6); experiment: TGR5/CRE Luciferase Assay (mTGR5); type: cell-based; conditions: for pEC50: HEK 293 cells transiently co-transfected with pCMV AC6-TGR5m and pCRE TA-Luciferase reporter, overnight incubation; for mTGR5 % trans: HEK 293 luciferase reporter, percentage of the 10 μM LCA value
mTGR5, sequence (Q80SS6 whole entry): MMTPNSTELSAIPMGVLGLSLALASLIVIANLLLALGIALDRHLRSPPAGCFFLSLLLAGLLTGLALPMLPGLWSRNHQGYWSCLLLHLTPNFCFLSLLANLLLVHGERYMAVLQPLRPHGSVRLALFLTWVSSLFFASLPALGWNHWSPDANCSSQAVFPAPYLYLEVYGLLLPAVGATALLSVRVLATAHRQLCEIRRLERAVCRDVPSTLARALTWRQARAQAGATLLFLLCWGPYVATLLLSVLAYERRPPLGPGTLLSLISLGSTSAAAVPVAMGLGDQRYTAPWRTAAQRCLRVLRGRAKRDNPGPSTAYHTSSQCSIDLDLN
Experimental: (§1) TGR5/CRE Luciferase Assay
(§2) In the following tables TGR5 activation by compounds and subsequent increase in intracellular cAMP were evaluated using a luciferase reporter gene assay. Human embryonic kidney (HEK) 293 cells were transiently co-transfected with pCMV tag4b-TGR5 h (to follow hTGR5 activation) or pCMV AC6-TGR5m (to follow mTGR5 activation) expression plasmids and the pCRE TA-Luciferase reporter plasmid using the JET PEI reagent (Polyplus transfection). Transfected cells were seeded in 96-well plates and incubated overnight with the test compounds at increasing concentrations tested in duplicate. Lithocolic acid (LCA) at 10 μM was used as a positive reference compound. The cAMP-dependent luciferase expression was followed using the BrightGlo reagent according to the manufacturer (Promega) instructions. Luminescence was read with a Mithras plate reader (Berthold). […] Concentration-response curves were fitted by a nonlinear regression analysis to a 4 parameter logistic equation.

hTGR5 = hTGR5 (Homo sapiens (Human), UniProt Q8TDU6); experiment: TGR5/CRE Luciferase Assay (hTGR5); type: cell-based; conditions: for pEC50: HEK 293 cells transiently co-transfected with pCMV tag4b-TGR5h and pCRE TA-Luciferase reporter, overnight incubation; for hTGR5 % trans: HEK 293 luciferase reporter, percentage of the 10 μM LCA value
hTGR5, sequence (Q8TDU6 whole entry): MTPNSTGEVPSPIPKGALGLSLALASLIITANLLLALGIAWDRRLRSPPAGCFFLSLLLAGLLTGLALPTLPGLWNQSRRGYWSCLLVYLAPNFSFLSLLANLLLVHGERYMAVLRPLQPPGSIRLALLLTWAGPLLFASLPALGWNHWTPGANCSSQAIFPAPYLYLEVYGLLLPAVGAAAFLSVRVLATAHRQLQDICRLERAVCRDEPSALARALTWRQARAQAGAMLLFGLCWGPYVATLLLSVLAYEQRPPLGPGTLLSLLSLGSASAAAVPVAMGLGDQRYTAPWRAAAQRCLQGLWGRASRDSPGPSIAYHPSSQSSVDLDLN
Experimental: as §1, §2

## [2-[2,6-Difluoro-4-(2-methoxy-polyethyleneglycoxy)-benzylsulfanyl]-3-(4-fluoro-3-methoxy-phenyl)-3H-imidazol-4-yl]-(3,4-dimethoxy-phenyl)-methyl-amine [Example 23]
mTGR5
  pEC50: 7.59
  mTGR5 % trans: 108%
hTGR5
  pEC50: 6.48
  hTGR5 % trans: 103%

## [2-[2,6-Difluoro-4-(2-methoxy-polyethyleneglycoxy)-benzylsulfanyl]-3-(4-fluoro-phenyl)-3H-imidazol-4-yl]-(3,4-dimethoxy-phenyl)-methyl-amine [Example 9]
mTGR5
  pEC50: 7.74
  mTGR5 % trans: 98%
hTGR5
  pEC50: 6.80
  hTGR5 % trans: 85%

## [2-[2,6-Difluoro-4-(2-methoxy-polyethyleneglycoxy)-benzylsulfanyl]-3-(4-fluoro-phenyl)-3H-imidazol-4-yl]-(3,4-dimethoxy-phenyl)-methyl-amine [Example 22]
mTGR5
  pEC50: 7.54
  mTGR5 % trans: 85%
hTGR5
  pEC50: 6.24
  hTGR5 % trans: 60%

## [2-[2,6-Difluoro-4-(2-methoxy-polyethyleneglycoxy)-benzylsulfanyl]-3-(4-fluorophenyl)-3H-imidazol-4-yl]-(3,4-dimethoxy-phenyl)-methyl-amine [Example 24]
mTGR5
  pEC50: 7.17
  mTGR5 % trans: 126%
hTGR5
  pEC50: 5.92
  hTGR5 % trans: 71%
